# Measured values: patent US20250351832A1, “PHYTOCHEMICALS AS BIOPESTICIDES AND BIOSTIMULANTS” (KAY BEE BIO ORGANICS PVT. LTD., priority 2024, published 2025)
# Where two headings read alike, the source gives them in different places.
# Legend:
# Spodoptera litura [1] = test: whole plant or invertebrate; details: 72 h
# Aphid [2] = test: whole plant or invertebrate; details: 48 h
# Mealy Bug [3] = details: Mealy Bug on cotton leaves, dose 1 ml/gm/lit., 48 Hrs.; for Total No. of dead insect at 48 Hrs.: 10 insects/treatment, 4 replications; for % Corrected Mortality at 48 Hrs.: corrected for water control
# Mite [4] = details: Dose 1 ml/gm/lit.; for Total No. of dead insect at 48 Hrs.: 10 insects/treatment, 4 replications, okra leaves
# [5] = cited from earlier work; for Phytotonic Effect: Table 13, effect on plants, descriptive
# Thrips [6] = details: thrips on cotton plants, greenhouse, dose 1 ml/gm/lit. spray; for % Mortality at 48 Hrs. / Total No. of dead insect at 48 Hrs.: 48 hrs after application; for % Corrected Mortality at 48 Hrs.: corrected for water control
# Spodoptera litura [7] = details: Spodoptera litura on castor leaves; dose 1 ml/gm/lit.; 10 insects/treatment; 72 hrs after application
# Helicoverpa armigera [8] = details: Helicoverpa armigera 3rd instar on chickpea plants, dose 1 ml/gm/lit. spray; for % Mortality at 72 Hrs.: 72 hrs after application; for % Corrected Mortality at 72 Hrs.: corrected for water control
# chili seedlings = test: Response of chili plants, greenhouse growth (Ex. 31); assay type: in vivo; details: chili seedlings, dose 1 ml/gm/lit; for CCI 5th Day / Plant Height (cm) 5th Day: 5th day after application; for CCI 10th Day / Plant Height (cm) 10th Day: 10th day after application; for CCI % Increase over pre on 10th Day / Plant Height % Increase over pre on 10th Day / Root Lenght (cm) 10th Day / Stem Girth % Increase over pre on 10th Day / Root Lenght % Increase over control: 10th day; for Root Lenght % Increase over control: vs water control
# tomato seedlings = test: Response of tomato plants, greenhouse growth (Ex. 30); assay type: in vivo; details: tomato seedlings, dose 1 ml/gm/lit; for Plant Height 5th Day / Stem Girth 5th Day / CCI 5th Day: 5th day after application; for Plant Height 10th Day / Stem Girth 10th Day / CCI 10th Day: 10th day after application; for Plant Height % Increase over pre on 10th Day / Stem Girth % Increase over pre on 10th Day / CCI % Increase over pre on 10th Day / Root Length (cm) 10th Day / Root Length % Increase over control: 10th day; for Root Length % Increase over control: vs water control
# Thrips [9] = details: Thrips on cotton leaves; dose 1 ml/gm/lit.; 10 insects/treatment; 48 hrs after application
# Spodoptera litura [10] = details: Spodoptera litura 3rd instar on cabbage plants, dose 1 ml/gm/lit. spray; for % Mortality at 72 Hrs.: 72 hrs after application; for % Corrected Mortality at 72 Hrs.: corrected for water control
# Thrips [11] = test: whole plant or invertebrate; details: in Gossypium hirsutum, 48 h
# Aphid [12] = details: Aphids on cotton plants, green house; dose 1 ml/gm/lit.; 10 insects/plant, 10 plants/treatment; 48 hrs
# Helicoverpa armigera [13] = details: Helicoverpa armigera on okra fruits, dose 1 ml/gm/lit., 72 Hrs.; for Total No. of dead insect at 72 Hrs.: 10 insects/treatment, 4 replications; for % Corrected Mortality at 72 Hrs.: corrected for water control
# Aphid [14] = details: Dose 1 ml/gm/lit.; for Total No. of dead insect at 48 Hrs.: 10 insects/treatment, 4 replications, cotton leaves
# Mite [15] = details: mite on okra plants, green house, dose 1 ml/gm/lit. spray; for % Mortality at 48 Hrs. / Total No. of dead insect at 48 Hrs.: 48 hrs after application; for % Corrected Mortality at 48 Hrs.: corrected for water control
# Alternaria alternata [16] = test: In vitro poisoned food technique against fungus (Ex. 20); assay type: cell-based
# Mealy Bug [17] = details: mealy bug on cotton plants, green house, dose 1 ml/gm/lit. spray; for % Mortality at 48 Hrs. / Total No. of dead insect at 48 Hrs.: 48 hrs after application; for % Corrected Mortality at 48 Hrs.: corrected for water control
# Alternaria alternata [18] = test: Alternaria leaf spot/blight on inoculated tomato plants (Ex. 28); assay type: in vivo; details: tomato plants, Alternaria alternata; after 7 days; dose 1 ml/gm/lit
# [19] = read-out: % Corrected Mortality at 72 Hrs.
# [20] = read-out: % Mortality at 72 Hrs.
# [21] = read-out: % Corrected Mortality at 48 Hrs.
# [22] = read-out: % Mortality at 48 Hrs.
# [23] = Table 13, descriptive, no test described
# [24] = poisoned food technique, PDA medium, dose 1 ml/gm/lit., after seven days
smiles,measurement,setting,value
CCCCCCCCCCCCCCCC(=O)O [Palmitic acid],mortality at 1 mL or g/L,Spodoptera litura [1]; [19],21.1%
same,mortality at 1 mL or g/L,Spodoptera litura [1]; [20],25%
same,mortality at 1 mL or g/L,Aphid [2]; [21],64.7%
same,mortality at 1 mL or g/L,Aphid [2]; [22],70%
same,Total No. of dead insect at 48 Hrs.,Mealy Bug [3],6.50
same,% Mortality at 48 Hrs.,Mealy Bug [3],65.00%
same,% Corrected Mortality at 48 Hrs.,Mealy Bug [3],63.16%
same,Total No. of dead insect at 48 Hrs.,Mite [4],4.25
same,% Corrected Mortality at 48 Hrs.,Mite [4],37.84%
same,% Mortality at 48 Hrs.,Mite [4],42.50%
same,Acaricidal Activity - Mode of action,[5]; [23],Exhibited potent acaricidal
same,Antifungal Activity - Mode of action,[5]; [23],Strongest antifungal
same,Bactericidal Activity - Mode of action,[5]; [23],Destroyed or disintegrated
same,Nematicidal Activity - Mode of action,[5]; [23],Repelling nematodes
same,Phytotonic Effect,[5],Optimize soil
same,% Mortality at 48 Hrs.,Thrips [6],40.00%
same,Total No. of dead insect at 48 Hrs.,Thrips [6],40.00
same,% Corrected Mortality at 48 Hrs.,Thrips [6],33.33%
same,Total No. of dead insect at 72 Hrs.,Spodoptera litura [7],2.50
same,% Mortality at 72 Hrs.,Helicoverpa armigera [8],40.00%
same,% Corrected Mortality at 72 Hrs.,Helicoverpa armigera [8],40.00%
same,CCI 5th Day,chili seedlings,13.04
same,Plant Height (cm) 5th Day,chili seedlings,6.30 cm
same,CCI % Increase over pre on 10th Day,chili seedlings,56.37%
same,Plant Height % Increase over pre on 10th Day,chili seedlings,68.98%
same,Root Lenght (cm) 10th Day,chili seedlings,4.41 cm
same,Stem Girth % Increase over pre on 10th Day,chili seedlings,58.78%
same,CCI 10th Day,chili seedlings,15.95
same,Plant Height (cm) 10th Day,chili seedlings,7.3 cm
same,Root Lenght % Increase over control,chili seedlings,61.00%
same,Plant Height 5th Day,tomato seedlings,7.14 cm
same,Stem Girth 5th Day,tomato seedlings,1.79 mm
same,Plant Height 10th Day,tomato seedlings,8.54 cm
same,Stem Girth 10th Day,tomato seedlings,2.32 mm
same,Plant Height % Increase over pre on 10th Day,tomato seedlings,41.16%
same,Stem Girth % Increase over pre on 10th Day,tomato seedlings,76.92%
same,CCI 5th Day,tomato seedlings,13.26
same,CCI % Increase over pre on 10th Day,tomato seedlings,33.42%
same,Root Length (cm) 10th Day,tomato seedlings,4.95 cm
same,CCI 10th Day,tomato seedlings,14.89
same,Root Length % Increase over control,tomato seedlings,48.91%
same,Total No. of dead insect at 48 Hrs.,Thrips [9],4.25
same,% Mortality at 72 Hrs.,Spodoptera litura [10],27.50%
same,% Corrected Mortality at 72 Hrs.,Spodoptera litura [10],23.68%
same,mortality at 1 mL or g/L,Thrips [11]; [21],34.3%
same,mortality at 1 mL or g/L,Thrips [11]; [22],42.5%
same,Total No. of dead insect at 48 Hrs.,Aphid [12],70.00
same,Total No. of dead insect at 72 Hrs.,Helicoverpa armigera [13],4.50
same,% Mortality at 72 Hrs.,Helicoverpa armigera [13],45.00%
same,% Corrected Mortality at 72 Hrs.,Helicoverpa armigera [13],45.00%
same,Total No. of dead insect at 48 Hrs.,Aphid [14],6.00
same,% Corrected Mortality at 48 Hrs.,Aphid [14]; 48 hrs,54.29%
same,% Mortality at 48 Hrs.,Aphid [14]; 48 hrs,60.00%
same,% Mortality at 48 Hrs.,Mite [15],45.00%
same,Total No. of dead insect at 48 Hrs.,Mite [15],45.00
same,% Corrected Mortality at 48 Hrs.,Mite [15],42.11%
same,inhibition of growth at 1 mL or g/L,Alternaria alternata [16]; […],34.1%
same,Mean colony Diameter (mm),Alternaria alternata [16]; [24],58.00 mm
same,% Mortality at 48 Hrs.,Mealy Bug [17],55.00%
same,Total No. of dead insect at 48 Hrs.,Mealy Bug [17],55.00
same,% Corrected Mortality at 48 Hrs.,Mealy Bug [17],50.00%
same,% Disease reduction over Control,Alternaria alternata [18],50.41%
O=C(/C=C/C=C/c1ccc2c(c1)OCO2)N1CCCCC1 [Piperine],mortality at 1 mL or g/L,Spodoptera litura [1]; [19],71%
same,mortality at 1 mL or g/L,Spodoptera litura [1]; [20],72.5%
same,mortality at 1 mL or g/L,Aphid [2]; [21],64.7%
same,mortality at 1 mL or g/L,Aphid [2]; [22],70%
same,Total No. of dead insect at 48 Hrs.,Mealy Bug [3],5.25
same,% Mortality at 48 Hrs.,Mealy Bug [3],52.50%
same,% Corrected Mortality at 48 Hrs.,Mealy Bug [3],50.00%
same,Total No. of dead insect at 48 Hrs.,Mite [4],6.25
same,% Corrected Mortality at 48 Hrs.,Mite [4],59.46%
same,% Mortality at 48 Hrs.,Mite [4],62.50%
same,Acaricidal Activity - Mode of action,[5]; [23],Cause dehydration of mites
same,Antifungal Activity - Mode of action,[5]; [23],Inhibition of the fungal
same,Phytotonic Effect,[5],Boost plant
same,% Mortality at 48 Hrs.,Thrips [6],32.50%
same,Total No. of dead insect at 48 Hrs.,Thrips [6],32.50
same,% Corrected Mortality at 48 Hrs.,Thrips [6],25.00%
same,Total No. of dead insect at 72 Hrs.,Spodoptera litura [7],7.25
same,% Mortality at 72 Hrs.,Helicoverpa armigera [8],67.50%
same,% Corrected Mortality at 72 Hrs.,Helicoverpa armigera [8],67.50%
same,CCI 5th Day,chili seedlings,13.30
same,Plant Height (cm) 5th Day,chili seedlings,6.30 cm
same,CCI % Increase over pre on 10th Day,chili seedlings,38.67%
same,Plant Height % Increase over pre on 10th Day,chili seedlings,54.78%
same,Root Lenght (cm) 10th Day,chili seedlings,3.25 cm
same,Stem Girth % Increase over pre on 10th Day,chili seedlings,39.49%
same,CCI 10th Day,chili seedlings,14.2
same,Plant Height (cm) 10th Day,chili seedlings,7.12 cm
same,Root Lenght % Increase over control,chili seedlings,18.81%
same,Plant Height 5th Day,tomato seedlings,6.41 cm
same,Stem Girth 5th Day,tomato seedlings,1.80 mm
same,Plant Height 10th Day,tomato seedlings,7.02 cm
same,Stem Girth 10th Day,tomato seedlings,2.24 mm
same,Plant Height % Increase over pre on 10th Day,tomato seedlings,30.48%
same,Stem Girth % Increase over pre on 10th Day,tomato seedlings,57.52%
same,CCI 5th Day,tomato seedlings,13.89
same,CCI % Increase over pre on 10th Day,tomato seedlings,20.71%
same,Root Length (cm) 10th Day,tomato seedlings,3.93 cm
same,CCI 10th Day,tomato seedlings,14.63
same,Root Length % Increase over control,tomato seedlings,18.18%
same,Total No. of dead insect at 48 Hrs.,Thrips [9],4.00
same,% Mortality at 72 Hrs.,Spodoptera litura [10],70.00%
same,% Corrected Mortality at 72 Hrs.,Spodoptera litura [10],68.42%
same,mortality at 1 mL or g/L,Thrips [11]; [21],31.4%
same,mortality at 1 mL or g/L,Thrips [11]; [22],40%
same,Total No. of dead insect at 48 Hrs.,Aphid [12],70.00
same,Total No. of dead insect at 72 Hrs.,Helicoverpa armigera [13],7.00
same,% Mortality at 72 Hrs.,Helicoverpa armigera [13],70.00%
same,% Corrected Mortality at 72 Hrs.,Helicoverpa armigera [13],70.00%
same,Total No. of dead insect at 48 Hrs.,Aphid [14],7.00
same,% Corrected Mortality at 48 Hrs.,Aphid [14]; 48 hrs,65.71%
same,% Mortality at 48 Hrs.,Mite [15],60.00%
same,Total No. of dead insect at 48 Hrs.,Mite [15],60.00
same,% Corrected Mortality at 48 Hrs.,Mite [15],57.89%
same,Mean colony Diameter (mm),Alternaria alternata [16]; [24],52.00 mm
same,inhibition of growth at 1 mL or g/L,"Alternaria alternata [16]; poisoned food technique, PDA medium, dose 1 ml/gm/lit., after seven days, vs untreated control, read-out: % Inhibition of growth",40.9%
same,% Mortality at 48 Hrs.,Mealy Bug [17],57.50%
same,Total No. of dead insect at 48 Hrs.,Mealy Bug [17],57.50
same,% Corrected Mortality at 48 Hrs.,Mealy Bug [17],52.78%
same,% Disease reduction over Control,Alternaria alternata [18],53.72%
